Values quoted from earlier work as cited in patent US11957727B2, “Prevention of neuroinflammation associated memory loss using nutraceutical compositions” (priority 2020, dated 2024).
Where two headings read alike, the source gives them in different places.

Columns and labels:
[1] = tested on: Nrf2 (+/+) primary peritoneal macrophages
[2] = tested on: LPS-induced ARDS
[3] = tested on: sepsis induction with live Escherichia coli / endotoxin (LPS 0111:B4); settings: for concentration of IL-la: controls 1187.0±278.64 pg/ml
[4] = tested on: nitric oxide; settings: lipopolysaccharide-induced
[5] = tested on: myocardial ischemia and reperfusion; settings: 10 mg/kg intravenously then 10 mg/kg/h infusion, rats
[6] = tested on: ulcerative colitis (UC); settings: 50 and 100 mg/kg/day
[7] = animal studies
[8] = tested on: human umbilical vein VECs (HUVECs)
[9] = tested on: endothelium of atherosclerotic plaque; settings: PT injection, apoE(−/−) mice
[10] = 50 mg/kg, LPS 5 mg/kg 3 days later

C[S+]([O-])CCCCN=C=S (stereo not shown) [sulforaphane, 1-isothiocyanato-4-(methylsulfinyl)-butane]
HO-1 expression ([1]; LPS-stimulated Nrf2 (+/+) macrophages): significantly augmented | LPS-stimulated mRNA expression, protein expression and production of TNF-alpha, IL-1beta, COX-2 and iNOS ([1]; pretreatment, Nrf2 (+/+) macrophages): potently inhibited | lactate dehydrogenase (LDH) activity [2, 10]: significantly decreased | wet-to-dry ratio of the lungs [2, 10]: significantly decreased | serum levels of interleukin-6 (IL-6) and tumor necrosis factor-α (TNF-α) ([2]; 50 mg/kg, LPS 5 mg/kg 3 days later, ELISA): significantly decreased | prostaglandin E2 (PGE2) production ([2]; mice with LPS-induced ALI): significantly inhibited

CC1=CC(=O)C(C(C)C)=CC1=O [thymoquinone]
concentration of IL-la ([3]; 0.75 mg/kg thymoquinone dose): 310.8 ± 70.93 pg/mL | IL-10 levels ([3]; 0.75 mg/kg thymoquinone, controls 5505.2±333.96 pg/ml): 2885.0 ± 553.98 pg/mL | concentration of IL-la ([3]; 1 mg/kg group): 428.3 ± 71.32 pg/mL | levels of TNF-α and IL-2 ([3]; P values=0.1817 and 0.0851): relatively lower levels | reduction of mortality ([3]; mice, thymoquinone before LPS or live E. coli challenge): 80-90% | concentration of nitric oxide [4]: reduced significantly

Epigallocatechin-3-gallate [EGCG]
myocardial damage and myeloperoxidase activity [5]: reduced | plasma IL-6 and creatine phosphokinase levels [5]: decreased | release of IL-6 and IL-17 [6]: reduce

trans-3,5-dimethoxy-4-hydroxystilbene [pterostilbene]
bioavailability [7]: 80% | protection against oxLDL-induced cell shrinkage, chromatin condensation, nuclear fragmentation and apoptosis ([8]; HUVECs, oxLDL 200 μg/ml): protected against such injuries | expression of lectin-like oxLDL receptor-1 (LOX-1) ([8]; in vitro and in vivo): inhibited | number of TUNEL-positive cells [9]: strongly decreased
